# The kinase profiling compilation of Christmann-Franck et al. (2016)
# Tests used:
# Test in all cases: radiometric filter-binding kinase assay
# MAP2K1 (human) = MAP2K1 (human) (UniProt Q02750); conditions: compound 10.0 µM
# NTRK1 (human) = NTRK1 (human) (UniProt P04629); conditions: compound 10.0 µM
# IKBKB (human) = IKBKB (human) (UniProt O14920); conditions: compound 10.0 µM
# MAP3K5 (human) = MAP3K5 (human) (UniProt Q99683); conditions: compound 10.0 µM
# MAPK15 (human) = MAPK15 (human) (UniProt Q8TD08); conditions: compound 10.0 µM
# SRC (human) = SRC (human) (UniProt P12931); conditions: compound 10.0 µM
# MKNK1 (human) = MKNK1 (human) (UniProt Q9BUB5); conditions: compound 10.0 µM
# MAPK9 (human) = MAPK9 (human) (UniProt P45984); conditions: compound 10.0 µM
# PKN2 (human) = PKN2 (human) (UniProt Q16513); conditions: compound 10.0 µM
# MAPK10 (human) = MAPK10 (human) (UniProt P53779); conditions: compound 10.0 µM
# Chain of MAPK10 (human) (P53779 whole entry, looked up): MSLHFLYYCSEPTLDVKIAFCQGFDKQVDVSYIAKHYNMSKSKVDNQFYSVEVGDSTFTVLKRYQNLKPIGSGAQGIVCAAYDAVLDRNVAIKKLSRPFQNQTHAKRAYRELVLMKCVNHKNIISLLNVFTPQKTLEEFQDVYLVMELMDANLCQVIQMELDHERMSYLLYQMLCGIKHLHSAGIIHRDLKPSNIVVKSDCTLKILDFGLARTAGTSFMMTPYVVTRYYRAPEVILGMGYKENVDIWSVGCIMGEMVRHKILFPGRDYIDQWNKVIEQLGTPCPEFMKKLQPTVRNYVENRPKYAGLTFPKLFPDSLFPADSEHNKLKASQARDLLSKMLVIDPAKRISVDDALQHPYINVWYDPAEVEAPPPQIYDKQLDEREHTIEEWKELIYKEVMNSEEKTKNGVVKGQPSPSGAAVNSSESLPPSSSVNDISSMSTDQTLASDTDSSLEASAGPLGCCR
# PRKAA1 or PRKAA2 (rat) = conditions: compound 10.0 µM; accession and sequence are those of the human protein
# NEK2 (human) = NEK2 (human) (UniProt P51955); conditions: compound 10.0 µM
# Chain of NEK2 (human) (P51955 whole entry, looked up): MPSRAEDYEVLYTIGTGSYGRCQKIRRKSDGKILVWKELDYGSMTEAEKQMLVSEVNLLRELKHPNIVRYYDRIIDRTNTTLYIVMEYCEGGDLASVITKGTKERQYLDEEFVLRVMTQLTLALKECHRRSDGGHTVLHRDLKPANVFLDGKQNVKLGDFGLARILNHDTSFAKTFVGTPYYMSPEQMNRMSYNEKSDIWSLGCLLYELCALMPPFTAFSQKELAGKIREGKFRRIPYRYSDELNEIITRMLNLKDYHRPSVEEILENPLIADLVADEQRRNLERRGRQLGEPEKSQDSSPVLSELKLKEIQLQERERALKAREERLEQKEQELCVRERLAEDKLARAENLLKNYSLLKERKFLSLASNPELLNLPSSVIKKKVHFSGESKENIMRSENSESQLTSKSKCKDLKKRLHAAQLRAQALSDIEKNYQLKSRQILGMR
# AURKB (human) = AURKB (human) (UniProt Q96GD4); conditions: compound 10.0 µM
# YES1 (human) = YES1 (human) (UniProt P07947); conditions: compound 10.0 µM
# CHEK1 (human) = CHEK1 (human) (UniProt O14757); conditions: compound 10.0 µM
# PIM2 (human) = PIM2 (human) (UniProt Q9P1W9); conditions: compound 10.0 µM
# RPS6KA1 KD1 KD2 (human) = RPS6KA1 KD1 KD2 (human) (UniProt Q15418); conditions: compound 10.0 µM
# MINK1 (human) = MINK1 (human) (UniProt Q8N4C8); conditions: compound 10.0 µM
# Chain of MINK1 (human) (Q8N4C8 whole entry, looked up): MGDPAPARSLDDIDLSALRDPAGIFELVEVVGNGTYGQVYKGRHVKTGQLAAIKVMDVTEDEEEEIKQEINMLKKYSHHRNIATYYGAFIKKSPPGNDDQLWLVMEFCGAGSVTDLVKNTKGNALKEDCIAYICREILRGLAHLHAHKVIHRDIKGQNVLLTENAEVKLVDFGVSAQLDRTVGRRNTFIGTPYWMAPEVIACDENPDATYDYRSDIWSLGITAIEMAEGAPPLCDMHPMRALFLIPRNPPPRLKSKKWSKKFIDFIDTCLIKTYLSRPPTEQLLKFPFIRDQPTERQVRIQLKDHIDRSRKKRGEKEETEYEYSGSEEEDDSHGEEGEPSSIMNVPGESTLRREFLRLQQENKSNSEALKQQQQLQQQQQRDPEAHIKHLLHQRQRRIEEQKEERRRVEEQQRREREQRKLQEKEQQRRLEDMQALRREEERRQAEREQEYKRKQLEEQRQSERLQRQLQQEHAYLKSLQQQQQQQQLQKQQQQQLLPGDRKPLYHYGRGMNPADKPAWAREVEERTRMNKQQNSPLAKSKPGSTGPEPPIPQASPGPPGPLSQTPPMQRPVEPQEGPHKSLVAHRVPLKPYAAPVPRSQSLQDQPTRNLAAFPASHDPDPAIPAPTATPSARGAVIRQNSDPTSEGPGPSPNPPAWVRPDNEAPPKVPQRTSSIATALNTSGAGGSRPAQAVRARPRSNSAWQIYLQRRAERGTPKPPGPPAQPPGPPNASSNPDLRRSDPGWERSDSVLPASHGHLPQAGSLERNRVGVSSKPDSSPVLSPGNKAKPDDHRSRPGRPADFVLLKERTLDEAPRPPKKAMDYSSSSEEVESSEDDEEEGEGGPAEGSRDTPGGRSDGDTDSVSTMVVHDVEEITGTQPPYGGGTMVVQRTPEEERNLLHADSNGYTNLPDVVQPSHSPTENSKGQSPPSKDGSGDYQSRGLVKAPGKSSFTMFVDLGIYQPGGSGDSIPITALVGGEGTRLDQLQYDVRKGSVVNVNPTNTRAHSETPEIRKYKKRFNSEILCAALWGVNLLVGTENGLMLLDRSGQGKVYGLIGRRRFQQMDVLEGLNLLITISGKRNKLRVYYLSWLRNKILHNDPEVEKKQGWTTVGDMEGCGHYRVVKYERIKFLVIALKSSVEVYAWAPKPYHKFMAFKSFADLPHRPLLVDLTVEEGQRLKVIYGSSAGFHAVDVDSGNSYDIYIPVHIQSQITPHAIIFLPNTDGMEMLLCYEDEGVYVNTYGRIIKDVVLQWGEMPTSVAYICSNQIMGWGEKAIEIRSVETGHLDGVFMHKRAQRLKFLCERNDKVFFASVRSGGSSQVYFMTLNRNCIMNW
# MARK2 (human) = MARK2 (human) (UniProt Q7KZI7); conditions: compound 10.0 µM
# MAPKAPK2 (human) = MAPKAPK2 (human) (UniProt P49137); conditions: compound 10.0 µM
# Chain of MAPKAPK2 (human) (P49137 whole entry, looked up): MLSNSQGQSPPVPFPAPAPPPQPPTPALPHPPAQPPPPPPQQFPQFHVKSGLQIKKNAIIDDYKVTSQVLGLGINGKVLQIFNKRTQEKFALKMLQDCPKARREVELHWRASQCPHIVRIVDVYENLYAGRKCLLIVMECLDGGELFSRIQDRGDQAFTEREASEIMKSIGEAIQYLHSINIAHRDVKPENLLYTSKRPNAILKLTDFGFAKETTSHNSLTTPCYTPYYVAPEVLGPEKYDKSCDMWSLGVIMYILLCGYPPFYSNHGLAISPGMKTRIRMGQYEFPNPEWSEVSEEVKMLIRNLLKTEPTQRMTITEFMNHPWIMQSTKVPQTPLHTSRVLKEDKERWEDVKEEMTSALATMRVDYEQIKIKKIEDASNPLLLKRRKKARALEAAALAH
# STK3 (human) = STK3 (human) (UniProt Q13188); conditions: compound 10.0 µM
# MAPK3 (human) = MAPK3 (human) (UniProt P27361); conditions: compound 10.0 µM
# PHKG1 (human) = PHKG1 (human) (UniProt Q16816); conditions: compound 10.0 µM
# MAPK1 (human) = MAPK1 (human) (UniProt P28482); conditions: compound 10.0 µM
# CHEK2 (human) = CHEK2 (human) (UniProt O96017); conditions: compound 10.0 µM
# [1] = target: STK11 CAB39 STRADA (human) (UniProt Q9Y376+Q7RTN6+Q15831); conditions: compound 10.0 µM
# EPHB4 (human) = EPHB4 (human) (UniProt P54760); conditions: compound 10.0 µM
# MAP3K1 (human) = MAP3K1 (human) (UniProt Q13233); conditions: compound 10.0 µM
# MKNK2 (human) = MKNK2 (human) (UniProt Q9HBH9); conditions: compound 10.0 µM
# PRKCA (human) = PRKCA (human) (UniProt P17252); conditions: compound 10.0 µM
# CAMKK2 (human) = CAMKK2 (human) (UniProt Q96RR4); conditions: compound 10.0 µM
# IGF1R (human) = IGF1R (human) (UniProt P08069); conditions: compound 10.0 µM
# [2] = system: AKT2 (human), P31751 [S474D]; conditions: compound 10.0 µM
# PRKACA (human) = PRKACA (human) (UniProt P17612); conditions: compound 10.0 µM
# Chain of MAP3K5 (human) (Q99683 whole entry, looked up): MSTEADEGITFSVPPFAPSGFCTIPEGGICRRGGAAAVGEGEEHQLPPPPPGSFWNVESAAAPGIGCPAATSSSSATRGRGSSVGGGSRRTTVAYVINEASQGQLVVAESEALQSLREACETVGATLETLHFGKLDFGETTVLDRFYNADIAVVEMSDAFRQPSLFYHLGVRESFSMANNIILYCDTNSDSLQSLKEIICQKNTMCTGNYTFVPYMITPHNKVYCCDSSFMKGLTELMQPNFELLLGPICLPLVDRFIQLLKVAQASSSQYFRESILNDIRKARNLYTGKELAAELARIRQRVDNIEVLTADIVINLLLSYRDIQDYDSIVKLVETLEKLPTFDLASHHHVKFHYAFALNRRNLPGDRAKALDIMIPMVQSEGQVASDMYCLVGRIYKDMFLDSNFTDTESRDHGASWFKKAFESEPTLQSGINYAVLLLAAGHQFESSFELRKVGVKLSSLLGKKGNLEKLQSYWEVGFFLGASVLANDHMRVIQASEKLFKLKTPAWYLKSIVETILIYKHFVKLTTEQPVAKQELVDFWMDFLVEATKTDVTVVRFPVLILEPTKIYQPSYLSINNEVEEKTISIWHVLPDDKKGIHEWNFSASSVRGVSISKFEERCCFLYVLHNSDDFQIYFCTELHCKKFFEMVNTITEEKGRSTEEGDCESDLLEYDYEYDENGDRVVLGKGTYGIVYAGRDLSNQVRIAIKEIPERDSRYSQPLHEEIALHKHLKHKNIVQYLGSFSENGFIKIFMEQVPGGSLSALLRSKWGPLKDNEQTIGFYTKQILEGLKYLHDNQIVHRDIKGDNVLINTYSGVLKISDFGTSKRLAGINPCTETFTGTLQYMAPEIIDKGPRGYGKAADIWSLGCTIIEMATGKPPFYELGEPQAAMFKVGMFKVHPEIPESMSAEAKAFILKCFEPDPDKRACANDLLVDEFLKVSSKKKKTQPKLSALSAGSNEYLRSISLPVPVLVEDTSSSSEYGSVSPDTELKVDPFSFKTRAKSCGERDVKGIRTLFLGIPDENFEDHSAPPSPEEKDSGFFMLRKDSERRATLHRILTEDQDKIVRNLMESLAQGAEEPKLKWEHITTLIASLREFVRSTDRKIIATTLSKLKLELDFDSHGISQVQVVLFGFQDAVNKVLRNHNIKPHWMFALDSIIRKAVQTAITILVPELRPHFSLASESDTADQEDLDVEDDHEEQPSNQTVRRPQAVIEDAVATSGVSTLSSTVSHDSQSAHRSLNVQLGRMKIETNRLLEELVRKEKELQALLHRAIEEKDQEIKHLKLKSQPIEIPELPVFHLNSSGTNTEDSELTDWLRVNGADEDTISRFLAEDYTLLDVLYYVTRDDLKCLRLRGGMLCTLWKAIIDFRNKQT
# Chain of NTRK1 (human) (P04629 whole entry, looked up): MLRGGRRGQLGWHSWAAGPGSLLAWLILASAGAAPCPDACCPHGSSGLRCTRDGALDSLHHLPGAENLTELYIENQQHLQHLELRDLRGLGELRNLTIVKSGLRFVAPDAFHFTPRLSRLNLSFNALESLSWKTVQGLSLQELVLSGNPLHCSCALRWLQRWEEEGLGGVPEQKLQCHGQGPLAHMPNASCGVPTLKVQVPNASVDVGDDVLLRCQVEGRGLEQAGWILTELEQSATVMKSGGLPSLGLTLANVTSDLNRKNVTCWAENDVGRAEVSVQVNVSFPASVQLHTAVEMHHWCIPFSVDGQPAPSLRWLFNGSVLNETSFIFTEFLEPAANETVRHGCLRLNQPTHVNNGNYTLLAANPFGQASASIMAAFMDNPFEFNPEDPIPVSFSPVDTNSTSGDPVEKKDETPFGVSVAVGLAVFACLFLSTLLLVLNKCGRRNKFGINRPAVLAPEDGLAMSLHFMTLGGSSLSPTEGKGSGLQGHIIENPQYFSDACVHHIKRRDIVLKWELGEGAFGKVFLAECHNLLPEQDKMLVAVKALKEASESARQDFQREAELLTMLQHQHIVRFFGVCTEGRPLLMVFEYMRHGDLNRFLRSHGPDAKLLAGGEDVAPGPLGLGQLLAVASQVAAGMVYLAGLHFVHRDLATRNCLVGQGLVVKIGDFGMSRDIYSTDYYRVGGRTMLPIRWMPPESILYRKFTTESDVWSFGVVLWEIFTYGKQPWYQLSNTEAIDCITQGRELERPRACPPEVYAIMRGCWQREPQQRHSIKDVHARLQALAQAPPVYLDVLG
compound,measurement,setting,value
CC(C)C[C@H](NC(=O)CNC(=O)c1cc(Cl)ccc1Cl)B1OC(=O)CC(CC(=O)O)(C(=O)O)O1 (some centres undefined),residual activity,MAP2K1 (human),92%
same,residual activity,NTRK1 (human),95%
same,residual activity,IKBKB (human),97%
same,residual activity,MAP3K5 (human),81%
same,residual activity,MAPK15 (human),100%
same,residual activity,SRC (human),86%
same,residual activity,MKNK1 (human),79%
same,residual activity,MAPK9 (human),87%
same,residual activity,PKN2 (human),86%
same,residual activity,MAPK10 (human),91%
same,residual activity,PRKAA1 or PRKAA2 (rat),82%
same,residual activity,NEK2 (human),94%
same,residual activity,AURKB (human),75%
same,residual activity,YES1 (human),82%
same,residual activity,CHEK1 (human),107%
same,residual activity,PIM2 (human),94%
same,residual activity,RPS6KA1 KD1 KD2 (human),80%
same,residual activity,MINK1 (human),73%
same,residual activity,MARK2 (human),81%
same,residual activity,MAPKAPK2 (human),88%
same,residual activity,STK3 (human),100%
same,residual activity,MAPK3 (human),106%
same,residual activity,PHKG1 (human),44%
same,residual activity,MAPK1 (human),86%
same,residual activity,CHEK2 (human),89%
same,residual activity,[1],124%
same,residual activity,EPHB4 (human),91%
same,residual activity,MAP3K1 (human),92%
same,residual activity,MKNK2 (human),80%
same,residual activity,PRKCA (human),113%
same,residual activity,CAMKK2 (human),86%
same,residual activity,IGF1R (human),87%
same,residual activity,[2],82%
same,residual activity,PRKACA (human),95%
